Source: article PMC12198282, “Application of a high-density microelectrode array assay using a 3D human iPSC-derived brain microphysiological system model for in vitro neurotoxicity screening of environmental compounds” (Archives of Toxicology, 2025)
Read-outs that look alike come from different tables or passages of the source.

Columns and labels:
2D rat cortical cultures [1] = conditions: cited from earlier work; for AC50: rNFA mc5
[2] = test system: human iPSC-derived 3D BrainSpheres; assay: BrainSphere MEA assay (HD-MEA, 13-day exposure, concentration-response); type: cell-based; conditions: for AC50: concentration at 50% maximal activity, Supplement 3 prints it also for curves with hit call 0; on hitc Mean.Spheroid.Burst.Duration: key: 1 (active); 0 (inactive); on hitc Mean.Spheroid.Burst.ISI: key: 1 (active); 0 (inactive); on hitc Mean.Spheroid.Burst.Peak.Firing.Rate: key: 1 (active); 0 (inactive); on hitc Mean.Spheroid.Firing.Rate: key: 1 (active); 0 (inactive); on hitc Mean.Spheroid.IBI: key: 1 (active); 0 (inactive); on hitc Mean.Spheroid.Nonburst.ISI: key: 1 (active); 0 (inactive); on hitc Mean.Spheroid.Spikes.per.Burst.per.Electrode: key: 1 (active); 0 (inactive); on hitc Mean.Spheroid.Spikes.per.Burst: key: 1 (active); 0 (inactive); on hitc Spheroid.Burst.Frequency: key: 1 (active); 0 (inactive); on hitc Spheroid.Spike.Amplitude.90th.Percentile: key: 1 (active); 0 (inactive)
Procedure, shortened: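 Recordings used a 5× RMS spike threshold and 600 s network scans of fixed electrode regions, each region clustered as one BrainSphere. Spheres had 7 weeks of differentiation and 48 h attachment on coated HD-MEA chips before day 0 of the 13-day concentration-response exposure. At least three independent plates were run.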

2D rat cortical cultures [3] = conditions: cytotoxicity LDH, cited from earlier work
[4] = AUC over 13-day exposure, tcplfit2
[5] = tcplfit2 BMD at benchmark response (1.349*SD of baseline controls)
[6] = tcplfit2 output ACC, activity cutoff in Supplemental Table 1
[7] = top of winning model, response normalized as percent of vehicle control, negative = decrease
Wherever hitc CCTE Shafer MEA dev active electrodes number is given: key: 1 (active); 0 (inactive).
Wherever hitc CCTE Shafer MEA dev burst duration mean is given: key: 1 (active); 0 (inactive).
Wherever hitc CCTE Shafer MEA dev burst rate is given: key: 1 (active); 0 (inactive).
Wherever hitc CCTE Shafer MEA dev bursting electrodes number is given: key: 1 (active); 0 (inactive).
Wherever hitc CCTE Shafer MEA dev correlation coefficient mean is given: key: 1 (active); 0 (inactive).
Wherever hitc CCTE Shafer MEA dev firing rate mean is given: key: 1 (active); 0 (inactive).
Wherever hitc CCTE Shafer MEA dev inter network spike interval mean is given: key: 1 (active); 0 (inactive).
Wherever hitc CCTE Shafer MEA dev interburst interval mean is given: key: 1 (active); 0 (inactive).
Wherever hitc CCTE Shafer MEA dev mutual information norm is given: key: 1 (active); 0 (inactive).
Wherever hitc CCTE Shafer MEA dev network spike duration std is given: key: 1 (active); 0 (inactive).
Wherever hitc CCTE Shafer MEA dev network spike number is given: key: 1 (active); 0 (inactive).
Wherever hitc CCTE Shafer MEA dev network spike peak is given: key: 1 (active); 0 (inactive).
Wherever hitc CCTE Shafer MEA dev per burst interspike interval is given: key: 1 (active); 0 (inactive).
Wherever hitc CCTE Shafer MEA dev per burst spike percent is given: key: 1 (active); 0 (inactive).
Wherever hitc CCTE Shafer MEA dev per network spike spike number mean is given: key: 1 (active); 0 (inactive).
Wherever hitc CCTE Shafer MEA dev per network spike spike percent is given: key: 1 (active); 0 (inactive).
Wherever hitc CCTE Shafer MEA dev spike duration mean is given: key: 1 (active); 0 (inactive).

## Brc1ccc(Oc2ccc(Br)cc2Br)c(Br)c1 [BDE- 47]
2D rat cortical cultures [1]; aenm active_electrodes_number, read-out: ac50 CCTE_Shafer_MEA_dev_active_electrodes_number
  AC50: 10 µM
2D rat cortical cultures [1]; aenm bursting_electrodes_number, read-out: ac50 CCTE_Shafer_MEA_dev_bursting_electrodes_number
  AC50: 0.023 µM
2D rat cortical cultures [1]; aenm correlation_coefficient_mean, read-out: ac50 CCTE_Shafer_MEA_dev_correlation_coefficient_mean
  AC50: 4.26 µM
2D rat cortical cultures [1]; aenm mutual_information_norm, read-out: ac50 CCTE_Shafer_MEA_dev_mutual_information_norm
  AC50: 0.013 µM
2D rat cortical cultures [1]; aenm network_spike_peak, read-out: ac50 CCTE_Shafer_MEA_dev_network_spike_peak
  AC50: 10 µM
2D rat cortical cultures [1]; aenm per_burst_spike_percent, read-out: ac50 CCTE_Shafer_MEA_dev_per_burst_spike_percent
  AC50: 14.2 µM
2D rat cortical cultures [1]; aenm per_network_spike_spike_number_mean, read-out: ac50 CCTE_Shafer_MEA_dev_per_network_spike_spike_number_mean
  AC50: 4 µM
2D rat cortical cultures [1]; aenm per_network_spike_spike_percent, read-out: ac50 CCTE_Shafer_MEA_dev_per_network_spike_spike_percent
  AC50: 15.1 µM
2D rat cortical cultures [1]; aenm spike_duration_mean, read-out: ac50 CCTE_Shafer_MEA_dev_spike_duration_mean
  AC50: 15 µM
2D rat cortical cultures [1]; rNFA mc5 hit call, aenm active_electrodes_number
  hitc CCTE_Shafer_MEA_dev_active_electrodes_number: 1
2D rat cortical cultures [1]; rNFA mc5 hit call, aenm burst_duration_mean
  hitc CCTE_Shafer_MEA_dev_burst_duration_mean: 0
2D rat cortical cultures [1]; rNFA mc5 hit call, aenm burst_rate
  hitc CCTE_Shafer_MEA_dev_burst_rate: 0
2D rat cortical cultures [1]; rNFA mc5 hit call, aenm bursting_electrodes_number
  hitc CCTE_Shafer_MEA_dev_bursting_electrodes_number: 1
2D rat cortical cultures [1]; rNFA mc5 hit call, aenm correlation_coefficient_mean
  hitc CCTE_Shafer_MEA_dev_correlation_coefficient_mean: 1
2D rat cortical cultures [1]; rNFA mc5 hit call, aenm firing_rate_mean
  hitc CCTE_Shafer_MEA_dev_firing_rate_mean: 0
2D rat cortical cultures [1]; rNFA mc5 hit call, aenm inter_network_spike_interval_mean
  hitc CCTE_Shafer_MEA_dev_inter_network_spike_interval_mean: 0
2D rat cortical cultures [1]; rNFA mc5 hit call, aenm interburst_interval_mean
  hitc CCTE_Shafer_MEA_dev_interburst_interval_mean: 0
2D rat cortical cultures [1]; rNFA mc5 hit call, aenm mutual_information_norm
  hitc CCTE_Shafer_MEA_dev_mutual_information_norm: 1
2D rat cortical cultures [1]; rNFA mc5 hit call, aenm network_spike_duration_std
  hitc CCTE_Shafer_MEA_dev_network_spike_duration_std: 0
2D rat cortical cultures [1]; rNFA mc5 hit call, aenm network_spike_number
  hitc CCTE_Shafer_MEA_dev_network_spike_number: 0
2D rat cortical cultures [1]; rNFA mc5 hit call, aenm network_spike_peak
  hitc CCTE_Shafer_MEA_dev_network_spike_peak: 1
2D rat cortical cultures [1]; rNFA mc5 hit call, aenm per_burst_interspike_interval
  hitc CCTE_Shafer_MEA_dev_per_burst_interspike_interval: 0
2D rat cortical cultures [1]; rNFA mc5 hit call, aenm per_burst_spike_percent
  hitc CCTE_Shafer_MEA_dev_per_burst_spike_percent: 1
2D rat cortical cultures [1]; rNFA mc5 hit call, aenm per_network_spike_spike_number_mean
  hitc CCTE_Shafer_MEA_dev_per_network_spike_spike_number_mean: 1
2D rat cortical cultures [1]; rNFA mc5 hit call, aenm per_network_spike_spike_percent
  hitc CCTE_Shafer_MEA_dev_per_network_spike_spike_percent: 1
2D rat cortical cultures [1]; rNFA mc5 hit call, aenm spike_duration_mean
  hitc CCTE_Shafer_MEA_dev_spike_duration_mean: 1
[2]; 5th percentile across active AC50 values per chemical, read-out: Minimum potency
  EC50: 8.22 µM
[2]; 5th percentile of AC50 values by chemical, above 0.5 = more potent in the rNFA
  Difference of minimum potency between BrainSphere MEA assay and rNFA: more than 0.5 log10 µM
[2]; [4]
  hitc Mean.Spheroid.Burst.Duration: 1
  hitc Mean.Spheroid.Burst.ISI: 1
  hitc Mean.Spheroid.Burst.Peak.Firing.Rate: 1
  hitc Mean.Spheroid.Firing.Rate: 1
  hitc Mean.Spheroid.IBI: 0
  hitc Mean.Spheroid.Nonburst.ISI: 0
  hitc Mean.Spheroid.Spikes.per.Burst: 1
  hitc Mean.Spheroid.Spikes.per.Burst.per.Electrode: 1
  hitc Spheroid.Burst.Frequency: 1
  hitc Spheroid.Spike.Amplitude.90th.Percentile: 1
[2]; listed as BDE-47, read-out: ac50 Mean.Spheroid.Burst.Duration
  AC50: 14.4 µM
[2]; listed as BDE-47, read-out: ac50 Mean.Spheroid.Burst.Peak.Firing.Rate
  AC50: 9.74 µM
[2]; listed as BDE-47, read-out: ac50 Mean.Spheroid.Firing.Rate
  AC50: 7.84 µM
[2]; listed as BDE-47, read-out: ac50 Spheroid.Burst.Frequency
  AC50: 8.92 µM
[2]; listed as BDE-47, read-out: ac50 Spheroid.Spike.Amplitude.90th.Percentile
  AC50: 13.4 µM
[2]; listed as BDE−47, read-out: ac50 Mean.Spheroid.Burst.Duration
  AC50: 14 µM
[2]; listed as BDE−47, read-out: ac50 Mean.Spheroid.Burst.Peak.Firing.Rate
  AC50: 9.7 µM
[2]; listed as BDE−47, read-out: ac50 Mean.Spheroid.Firing.Rate
  AC50: 7.8 µM
[2]; listed as BDE−47, read-out: ac50 Spheroid.Burst.Frequency
  AC50: 8.9 µM
[2]; listed as BDE−47, read-out: ac50 Spheroid.Spike.Amplitude.90th.Percentile
  AC50: 13 µM
[2]; read-out: ac50 Mean.Spheroid.Burst.ISI
  AC50: 13.4 µM
[2]; read-out: ac50 Mean.Spheroid.IBI
  AC50: 45 µM
[2]; read-out: ac50 Mean.Spheroid.Spikes.per.Burst
  AC50: 14.3 µM
[2]; read-out: ac50 Mean.Spheroid.Spikes.per.Burst.per.Electrode
  AC50: 8.93 µM
[2]; mean across active AC50 values per chemical, read-out: Mean potency
  EC50: 11.4 µM
[2]; metrics active out of the total number of metrics screened
  Percent active: 80%
[2]; [5]
  BMD Mean.Spheroid.Burst.Duration: 8.9 µM
  BMD Mean.Spheroid.Burst.ISI: 7.8 µM
  BMD Mean.Spheroid.Burst.Peak.Firing.Rate: 7.1 µM
  BMD Mean.Spheroid.Firing.Rate: 7.9 µM
  BMD Mean.Spheroid.IBI: 34 µM
  BMD Mean.Spheroid.Nonburst.ISI: 48 µM
  BMD Mean.Spheroid.Spikes.per.Burst: 12 µM
  BMD Mean.Spheroid.Spikes.per.Burst.per.Electrode: 7 µM
  BMD Spheroid.Burst.Frequency: 10 µM
  BMD Spheroid.Spike.Amplitude.90th.Percentile: 6.7 µM
[2]; [6]
  ACC Mean.Spheroid.Burst.Duration: 7.9 µM
  ACC Mean.Spheroid.Burst.ISI: 4.8 µM
  ACC Mean.Spheroid.Burst.Peak.Firing.Rate: 6.6 µM
  ACC Mean.Spheroid.Firing.Rate: 11 µM
  ACC Mean.Spheroid.IBI: 50 µM
  ACC Mean.Spheroid.Nonburst.ISI: 55 µM
  ACC Mean.Spheroid.Spikes.per.Burst: 17 µM
  ACC Mean.Spheroid.Spikes.per.Burst.per.Electrode: 8.2 µM
  ACC Spheroid.Burst.Frequency: 8.5 µM
  ACC Spheroid.Spike.Amplitude.90th.Percentile: 9.5 µM
[2]; [7]
  Top Mean.Spheroid.Burst.Duration: −93
  Top Mean.Spheroid.Burst.ISI: −93
  Top Mean.Spheroid.Burst.Peak.Firing.Rate: −93
  Top Mean.Spheroid.Firing.Rate: −92
  Top Mean.Spheroid.IBI: −81
  Top Mean.Spheroid.Nonburst.ISI: −74
  Top Mean.Spheroid.Spikes.per.Burst: −93
  Top Mean.Spheroid.Spikes.per.Burst.per.Electrode: −92
  Top Spheroid.Burst.Frequency: −95
  Top Spheroid.Spike.Amplitude.90th.Percentile: −22
[2]; total number of active endpoints out of 10 MEA activity metrics, 13-day exposure
  Hits: 8
2D rat cortical cultures [3]; rNFA mc5 hit call
  hitc CCTE_Shafer_MEA_dev_LDH: 1
2D rat cortical cultures [3]; read-out: ac50 CCTE_Shafer_MEA_dev_LDH, rNFA mc5
  AC50: 12.3 µM
